Results published in the NIST ThermoML archive (doi:10.1021/je0600808).

Key:
[1] = 101.33 kPa, Liquid
[2] = xn = mol fraction of the nth substance listed; conditions: 101 kPa, Liquid

CCCCO [butan-1-ol]
[1]
Conditions	mass density [kg/m3]	viscosity [mPa·s]
293.15 K	809.82	2.963
298.15 K	806.06	2.619
303.15 K	802.03	2.298
313.15 K	793.29	1.786
323.15 K	786.55	1.421
333.15 K	777.81	1.137
343.15 K	767.03	0.92
353.15 K	757.52	0.759
363.15 K	749.38	0.63

CCOC(=O)OCC [diethyl carbonate] + CCCCO
[2]
Conditions	mass density, x1 = 0.1016 [kg/m3]	mass density, x1 = 0.2023 [kg/m3]	mass density, x1 = 0.2974 [kg/m3]	viscosity, x1 = 0.1016 [mPa·s]	viscosity, x1 = 0.2023 [mPa·s]	viscosity, x1 = 0.2974 [mPa·s]
293.15 K	830.56	849.89	867.23	2.161	1.681	1.38
298.15 K	826.34	845.4	862.6	1.909	1.504	1.254
303.15 K	821.75	840.53	857.48	1.685	1.339	1.13
313.15 K	812.55	831.22	847.88	1.345	1.091	0.932
323.15 K	804.95	822.83	838.91	1.097	0.906	0.785
333.15 K	795.85	813.37	829.07	0.904	0.761	0.668
343.15 K	784.94	802.09	817.6	0.749	0.642	0.572
353.15 K	775.15	792.01	807.21	0.63	0.549	0.496
363.15 K	766.42	782.78	797.61	0.536	0.475	0.434

CCCO [propan-1-ol]
[1]
Conditions	mass density [kg/m3]	viscosity [mPa·s]
293.15 K	803.62	2.238
298.15 K	799.41	1.981
303.15 K	795.27	1.745
313.15 K	786.62	1.381
323.15 K	773.91	1.115
333.15 K	767.31	0.907
343.15 K	755.95	0.742
353.15 K	748.41	0.615
363.15 K	739.7	0.515

CCOC(=O)OCC [diethyl carbonate] + CCCO
[2]
Conditions	mass density, x1 = 0.0993 [kg/m3]	mass density, x1 = 0.2003 [kg/m3]	mass density, x1 = 0.3011 [kg/m3]	viscosity, x1 = 0.0993 [mPa·s]	viscosity, x1 = 0.2003 [mPa·s]	viscosity, x1 = 0.3011 [mPa·s]
293.15 K	829.06	852	872.49	1.668	1.347	1.147
298.15 K	824.24	846.98	867.35	1.49	1.211	1.037
303.15 K	819.57	841.86	861.83	1.328	1.089	0.938
313.15 K	810.34	832.49	852.34	1.073	0.896	0.783
323.15 K	798.04	819.74	839.43	0.887	0.751	0.666
333.15 K	790.59	811.83	831	0.739	0.636	0.572
343.15 K	778.86	799.8	818.79	0.618	0.542	0.493
353.15 K	770.55	790.85	809.27	0.524	0.466	0.43
363.15 K	761.19	780.98	799	0.448	0.405	0.378

CCCCCO [pentan-1-ol]
[1]
Conditions	mass density [kg/m3]	viscosity [mPa·s]
293.15 K	814.51	4.117
298.15 K	810.73	3.556
303.15 K	806.77	3.06
313.15 K	799.05	2.332
323.15 K	789.81	1.822
333.15 K	781.81	1.44
343.15 K	772.84	1.146
353.15 K	764.79	0.931
363.15 K	757.17	0.767

CCOC(=O)OCC [diethyl carbonate] + CCCCCO
[2]
Conditions	mass density, x1 = 0.1016 [kg/m3]	mass density, x1 = 0.2056 [kg/m3]	mass density, x1 = 0.2991 [kg/m3]	viscosity, x1 = 0.1016 [mPa·s]	viscosity, x1 = 0.2056 [mPa·s]	viscosity, x1 = 0.2991 [mPa·s]
293.15 K	831.8	849.16	864.58	2.879	2.155	1.735
298.15 K	827.59	844.75	859.91	2.522	1.907	1.549
303.15 K	823.06	840.03	854.97	2.206	1.69	1.386
313.15 K	814.72	831.26	845.78	1.723	1.351	1.132
323.15 K	805.16	821.48	835.87	1.383	1.109	0.939
333.15 K	796.72	812.44	826.67	1.122	0.918	0.79
343.15 K	787.31	802.62	816.48	0.919	0.766	0.67
353.15 K	778.85	793.74	807.26	0.764	0.65	0.576
363.15 K	770.78	785.19	798.3	0.644	0.557	0.501

CCOC(=O)OCC [diethyl carbonate]
[1]
Conditions	mass density [kg/m3]	viscosity [mPa·s]
293.15 K	975	0.8
298.15 K	968.97	0.746
303.15 K	962.39	0.695
313.15 K	952.32	0.61
323.15 K	939.78	0.541
333.15 K	928.69	0.483
343.15 K	916.33	0.435
353.15 K	905.02	0.393
363.15 K	893.71	0.358
